From publication PMC9919730, “A Versatile Continuous Fluorometric Enzymatic Assay for Targeting Nicotinate Phosphoribosyltransferase” (Molecules, 2023)
“Also recorded” adds a separate entry of the source. Read-outs that look alike come from different tables or passages of the source.

Tests used:
OVCAR-5 cells [1] = assay: Cell viability, sulforhodamine B assay, with or without FK866; assay type: cell-based; details: for Sensitization of cells to FK866 (cell viability in combination): 200 µM compound with FK866 0 to 100 nM; for Combination index (CI): CompuSyn; for viability at 200 µM: Homo sapiens, OVCAR-5, 200 µM compound with 3 nM FK866, 72 h
Description: The OVCAR-5 cell line was obtained from the NCI-60 panel. Cells were seeded in 96-well plates (3 × 10^3 cells/well) and were treated with the selected compounds at a 200 µM final concentration or with 0.2% DMSO the day after, in combination with increasing concentrations of FK866, ranging from 0 to 100 nM. Treated cells were incubated at 37 °C and 5% CO2 for 72 h. At the end of the treatment, trichloroacetic acid (TCA) (10% final concentration) was added to each well. After 20 min at 4 °C, the wells were washed 4 times with tap water to remove TCA, and they were let to dry. Cell viability was evaluated with the sulforhodamine B assay, as previously described.

OVCAR-5 cells [2] = assay: Intracellular NAD+ levels measurement (cycling assay); assay type: cell-based; details: for Effect on NAD+ levels combined with FK866: 200 µM compound with 3 nM FK866, 24 h; for NAD levels: 200 µM compound with 3 nM FK866, after 72 h of incubation as printed
Description: The compounds were prepared as described above. OVCAR-5 cells were seeded in a 12-well plate (1 × 10^5/well). The day after, cells were treated with combinations of each selected compound (200 µM, final concentration) and FK866 (3 nM, final concentration) and were incubated at 37 °C and 5% CO2. […] Cell lysates were subsequently collected, transferred to new tubes, and diluted in 100 mM Na2HPO4 at pH 8. To determine the amount of NAD^+, we utilized a sensitive cyclic assay that takes advantage of the enzymatic activity of ADH [23]. Briefly, 0.1 mL of the cycling reagent (2% (v/v) ethanol, 100 μg/mL ADH, 20 μM resazurin, 5 μg/mL diaphorase, 10 μM FMN, 10 mM nicotinamide, and 100 mM sodium phosphate, pH 8.0) were added to each well, containing 0.1 mL of each diluted sample. The increase in resorufin fluorescence (544 nm excitation, 590 nm emission) was measured every min over a 2 h period using a fluorescence plate reader (Fluostar Optima, BMG Labtechnologies GmbH, Offenburg, Germany). A NAD^+ standard curve was always run in parallel in each assay.

human recombinant NAPRT [3] = molecular target: T1, human recombinant NAPRT (Homo sapiens, UniProt Q6XQN6); assay: Continuous coupled fluorometric NADH assay of NAPRT activity; details: for Inhibitory activity against NAPRT (in words): screening at 0.5 mM
T1 sequence (Q6XQN6 1-538): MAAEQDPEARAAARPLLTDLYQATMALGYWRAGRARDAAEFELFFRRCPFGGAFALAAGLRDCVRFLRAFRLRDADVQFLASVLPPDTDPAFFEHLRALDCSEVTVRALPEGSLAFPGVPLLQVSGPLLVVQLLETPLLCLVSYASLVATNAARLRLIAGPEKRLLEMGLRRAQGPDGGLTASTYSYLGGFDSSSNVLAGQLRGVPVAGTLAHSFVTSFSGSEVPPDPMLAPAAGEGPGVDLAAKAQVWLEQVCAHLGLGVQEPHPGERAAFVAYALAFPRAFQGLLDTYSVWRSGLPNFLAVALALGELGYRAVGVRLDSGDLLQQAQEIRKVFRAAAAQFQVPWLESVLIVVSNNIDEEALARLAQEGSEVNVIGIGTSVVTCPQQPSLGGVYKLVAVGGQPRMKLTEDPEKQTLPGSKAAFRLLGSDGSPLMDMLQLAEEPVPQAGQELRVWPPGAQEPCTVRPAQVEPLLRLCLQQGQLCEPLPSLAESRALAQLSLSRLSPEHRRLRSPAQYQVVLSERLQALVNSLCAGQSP
Description: NADH fluorescence was monitored continuously at 37 °C for 30 min, using a 96-well plate in a Sinergy HT microplate reader (Bio-Tek, Winooski, VT, USA) set at excitation and emission wavelengths of 340 nm and 460 nm, respectively. The slope of the linear fit of fluorescence versus time was used to calculate the NAPRT activity by referring to an NADH standard curve, obtained by plotting the fluorescence of a known amount of NADH versus the nucleotide concentrations. […] These mixtures were optimized to make NadD the rate-limiting enzyme of the ancillary system, i.e., concentrations of the enzyme NadD and the NAMN substrate were chosen to guarantee a linear time course of the fluorescence increase up to 30 min.
The analyzed compounds were dissolved in 100% v/v DMSO. Few compounds were dissolved in water. The compounds were tested at a 0.5 mM concentration. […] The screening was started by using the NADH assay. […] The fluorescence increase was monitored continuously, which allowed us to easily estimate the quality of data and to identify potential artifacts (e.g., arising from compounds precipitation). […] One inhibitor control for each tested compound (compound and no NAPRT), as well as four positive controls (NAPRT and no compound) and four negative controls (no NAPRT and no compound) were included in every reaction plate. The percentage inhibition was calculated relative to the controls as follows: % inhibition=(Si−Ci)/(µp−µn)×100 where Si represents the signal in the presence of the compound; Ci is the signal of the inhibitor control; and µp and µn are the mean values of the signals of the positive and negative controls, respectively.
The IC50 value was determined by plotting the rates versus inhibitor concentration and fitting to the equation: Vi = V0/(1 + [I]/IC50) using GraphPad Prism 7. V0 and Vi represent initial rates in the absence and presence of the inhibitor at concentration [I], respectively.
Ki values were calculated from the straight line deriving from the replotting of the slopes of the reciprocal plot against the concentrations of the inhibitor (secondary plot). In particular, the straight line intersects the x-axis at [I] = −Ki [28].

human recombinant NAPRT [4] = molecular target: T1, human recombinant NAPRT; assay: Resazurin/diaphorase-coupled assay of NAPRT activity; assay type: biochemical; design: inferred from purification on a HisTrap IMAC column with imidazole elution; made in house; host or cells: E. coli BL21 (D3); details: 0.5 mM compound; 0.1 mM NA, 0.4 mM PRPP; resazurin/diaphorase-coupled assay (optical interference at NADH wavelength)
Description: The NAPRT concentration was 0.004 × 10^−3 U/mL (2 nM). […] The increase in fluorescence due to resorufin formation in the assay was monitored continuously for 30 min, at 590 nm, after excitation at 530 nm, using a 96-well plate in the Sinergy HT microplate reader at 37 °C. […] To determine the NAPRT activity, the first derivative of the recorded fluorescence curve was calculated, and the slope of the corresponding curve was referred to a standard curve obtained by plotting the fluorescence rate recorded in assay mixtures containing known amounts of NAD^+ in the absence of NAPRT, NadD, and NadE versus the dinucleotide concentrations.
The analyzed compounds were dissolved in 100% v/v DMSO. Few compounds were dissolved in water. The compounds were tested at a 0.5 mM concentration. […] The screening was started by using the NADH assay. […] One inhibitor control for each tested compound (compound and no NAPRT), as well as four positive controls (NAPRT and no compound) and four negative controls (no NAPRT and no compound) were included in every reaction plate. The percentage inhibition was calculated relative to the controls as follows: % inhibition=(Si−Ci)/(µp−µn)×100 where Si represents the signal in the presence of the compound; Ci is the signal of the inhibitor control; and µp and µn are the mean values of the signals of the positive and negative controls, respectively.

human recombinant NAPRT [5] = molecular target: T1, human recombinant NAPRT; assay: HPLC assay of NAPRT activity; assay type: biochemical; design: inferred from purification on a HisTrap IMAC column with imidazole elution; made in house; host or cells: E. coli BL21 (D3); details: 0.5 mM compound; 0.1 mM NA, 0.4 mM PRPP; HPLC assay (interference with both fluorometric assays)
Description: The amount of enzyme was optimized to provide substrate consumption below 20% of the initial concentration after 10 min of incubation at 37 °C. In addition, withdrawals from the reaction mixture at 5 and 10 min were always performed to ensure a linear time frame. The reaction was stopped by acidification with 0.6 M HClO4. After 10 min on ice, samples were clarified by centrifugation for 2 min at 13,000× g. The supernatants were neutralized with 0.8 M K2CO3, frozen at −20 °C for about 20 min, centrifuged at 13,000× g for 5 min, and injected onto a Supelcosil LC-18-S column (5 µm; 250 × 4.6 mm) thermostatted at 8 °C. […] The elution was monitored at 260 nm (Shimadzu SPD-M20A), and the formed NAMN was quantified by referring to an appropriate standard.
The analyzed compounds were dissolved in 100% v/v DMSO. […] The fluorescence increase was monitored continuously, which allowed us to easily estimate the quality of data and to identify potential artifacts (e.g., arising from compounds precipitation). […] The percentage inhibition was calculated relative to the controls as follows: % inhibition=(Si−Ci)/(µp−µn)×100 where Si represents the signal in the presence of the compound; Ci is the signal of the inhibitor control; and µp and µn are the mean values of the signals of the positive and negative controls, respectively.

[6] = substrate: O=C(O)c1cccnc1; assay: purified protein, by the assay type; details: other: kinetics in the absence of the inhibitor; 0.4 mM PRPP; pH 7.5; 37.0 °C
[7] = FK866 dose 3 nM with 200 µM compound
[8] = FK866 dose 10 nM with 200 µM compound
[9] = FK866 dose 30 nM with 200 µM compound
[10] = FK866 dose 100 nM with 200 µM compound
[11] = 0.5 mM compound, 0.1 mM NA, 0.4 mM PRPP, NADH assay
[12] = towards NA, NA 10 to 50 µM at 0.4 mM PRPP, NADH assay

Molecule: O=C(O)c1cccnc1O [Compound 1, 2-hydroxynicotinic acid]
- Sensitization of cells to FK866 (cell viability in combination) (OVCAR-5 cells [1]; 72 h): reduced cell viability when combined with FK866
- Sensitization of cells to FK866 (cell viability in combination) (OVCAR-5 cells [1]; 72 h, listed as 2-hydroxynicotinic acid): sensitize OVCAR-5 cells to the NAMPT inhibitor FK866; also recorded: effective in sensitizing tumor cells to NAMPT inhibitors
- Combination index (CI) (OVCAR-5 cells [1]; [7]): 0.5117
- Combination index (CI) (OVCAR-5 cells [1]; [8]): 0.3255
- Combination index (CI) (OVCAR-5 cells [1]; [9]): 0.339
- Combination index (CI) (OVCAR-5 cells [1]; [10]): 0.3592
- viability at 200 µM (OVCAR-5 cells [1]): ~75%
- Effect on NAD+ levels combined with FK866 (OVCAR-5 cells [2]): most effective
- NAD levels (OVCAR-5 cells [2]): about 15%

Molecule: Nc1ncccc1C(=O)O [Compound 2, 2-aminonicotinic acid]
- Sensitization of cells to FK866 (cell viability in combination) (OVCAR-5 cells [1]; 72 h): did not significantly sensitize cells to FK866 toxicity
- IC50 (human recombinant NAPRT [3]): 609 ± 69 µM
- Ki (human recombinant NAPRT [3]): 348 ± 36 µM
- inhibition at 500 µM (human recombinant NAPRT [3]; [11]): 38%
- Inhibition Mechanism (human recombinant NAPRT [3]; [12]): mixed

Molecule: O=C(O)c1cccnc1F [Compound 3, 2-fluoronicotinic acid]
- Sensitization of cells to FK866 (cell viability in combination) (OVCAR-5 cells [1]; 72 h): did not significantly sensitize cells to FK866 toxicity
- IC50 (human recombinant NAPRT [3]): 351 ± 38 µM
- Ki (human recombinant NAPRT [3]): 149 ± 14 µM
- inhibition at 500 µM (human recombinant NAPRT [3]; [11]): 57%
- Inhibition Mechanism (human recombinant NAPRT [3]; [12]): non-competitive

Molecule: O=C(O)c1ccc(Cl)nc1 [Compound 4, 6-chloronicotinic acid]
- IC50 (human recombinant NAPRT [3]): 1260 ± 115 µM
- Inhibition Mechanism (human recombinant NAPRT [3]): 845 ± 69 non-competitive
- Ki (human recombinant NAPRT [3]): 845 ± 69 µM
- inhibition at 500 µM (human recombinant NAPRT [3]): 44%

Molecule: O=C(O)c1cccnc1C(=O)O [Compound 7, 2,3-pyridine dicarboxylic acid]
- inhibition at 500 µM (human recombinant NAPRT [3]; [11]): 9%

Molecule: O=C(O)c1ccc(O)nc1 [Compound 8, 6-hydroxynicotinic acid]
- inhibition at 500 µM (human recombinant NAPRT [3]): 0%

Molecule: O=C(O)c1cnccn1 [Compound 9, pyrazine-2-carboxylic acid]
- Sensitization of cells to FK866 (cell viability in combination) (OVCAR-5 cells [1]; 72 h): reduced cell viability when combined with FK866
- Sensitization of cells to FK866 (cell viability in combination) (OVCAR-5 cells [1]; 72 h, listed as pyrazine-2-carboxylic acid): sensitize OVCAR-5 cells to the NAMPT inhibitor FK866
- Combination index (CI) (OVCAR-5 cells [1]; [7]): 0.198
- Combination index (CI) (OVCAR-5 cells [1]; [8]): 0.0673
- Combination index (CI) (OVCAR-5 cells [1]; [9]): 0.03276
- Combination index (CI) (OVCAR-5 cells [1]; [10]): 0.01211
- viability at 200 µM (OVCAR-5 cells [1]): ~80%
- Effect on NAD+ levels combined with FK866 (OVCAR-5 cells [2]): most effective
- NAD levels (OVCAR-5 cells [2]): ~30%

Molecule: Nc1nccnc1C(=O)O [Compound 10, 3-aminopyrazine-2-carboxylic acid]
- inhibition at 500 µM (human recombinant NAPRT [4]): 6%

Molecule: NC(=O)c1cnccn1 [Compound 12, pyrazinamide]
- inhibition at 500 µM (human recombinant NAPRT [3]; [11]): 0%

Molecule: O=C(O)Cc1cnccn1 [Compound 13, 2-pyrazine acetic acid]
- inhibition at 500 µM (human recombinant NAPRT [3]; [11]): 0%

Molecule: Cc1cnc(C(=O)O)c[n+]1[O-] [Compound 14, Acipimox]
- inhibition at 500 µM (human recombinant NAPRT [3]; [11]): 0%

Molecule: O=C(O)c1cccnn1 [Compound 15, 3-pyridazine carboxylic acid]
- IC50 (human recombinant NAPRT [3]): 1370 ± 74 µM
- Ki (human recombinant NAPRT [3]): 513 ± 13 µM
- inhibition at 500 µM (human recombinant NAPRT [3]; [11]): 30%
- Inhibition Mechanism (human recombinant NAPRT [3]; [12]): mixed inhibitor

Molecule: O=C(O)c1ccccc1O [Compound 17, salicylic acid]
- Effect on cell viability in the absence of FK866 (OVCAR-5 cells [1]; 200 µM compound, 72 h, no FK866): toxicity
- IC50 (human recombinant NAPRT [3]): 351 ± 19 µM
- Ki (human recombinant NAPRT [3]): 169 ± 15 µM
- inhibition at 500 µM (human recombinant NAPRT [3]; [11]): 58%
- Inhibition Mechanism (human recombinant NAPRT [3]; [12]): noncompetitive inhibition; also recorded: non- competitive

Molecule: CC(=O)Oc1ccccc1C(=O)O [Compound 18, acetyl salicylic acid]
- inhibition at 500 µM (human recombinant NAPRT [3]; [11]): 11%

Molecule: O=C(O)c1ccccc1 [Compound 19, benzoic acid]
- inhibition at 500 µM (human recombinant NAPRT [3]): 8%

Molecule: Nc1ccccc1C(=O)O [Compound 20, anthranilic acid]
- inhibition at 500 µM (human recombinant NAPRT [3]): 5%

Molecule: Nc1c(O)cccc1C(=O)O [Compound 21, 3-hydroxy anthranilic acid]
- inhibition at 500 µM (human recombinant NAPRT [5]): 5%

Molecule: O=C(O)c1ccccc1N=Nc1ccc(O)cc1 [Compound 22, 2-(4-hydroxyphenylazo) benzoic acid]
- inhibition at 500 µM (human recombinant NAPRT [5]): 5%

Molecule: O=C(O)c1cccc(N2CCOCC2)c1 [Compound 24, 3-morpholinobenzoic acid]
- inhibition at 500 µM (human recombinant NAPRT [4]): 0%

Molecule: O=C(O)c1ccccn1 [Compound 25, 2-picolinic acid]
- inhibition at 500 µM (human recombinant NAPRT [3]; [11]): 6%

Molecule: O=C(O)c1ccncc1 [Compound 27, isonicotinic acid]
- inhibition at 500 µM (human recombinant NAPRT [3]; [11]): 0%

Molecule: O=C(O)c1cncnc1 [Compound 28, 5-pyrimidine carboxylic acid]
- inhibition at 500 µM (human recombinant NAPRT [3]; [11]): ≤ 20%

Molecule: O=C(O)c1ncccn1 [Compound 29, 2-pyrimidine carboxylic acid]
- inhibition at 500 µM (human recombinant NAPRT [3]; [11]): ≤ 20%

Molecule: Oc1ncccn1 [Compound 32, 2-hydroxypyrimidine]
- inhibition at 500 µM (human recombinant NAPRT [3]; [11]): 0%
- Inhibitory activity against NAPRT (in words) (human recombinant NAPRT [3]): very poor inhibitors

Molecule: c1cnc(N2CCNCC2)nc1 [Compound 33, 2-(1-piperazinyl)pyrimidine]
- inhibition at 500 µM (human recombinant NAPRT [3]; [11]): 0%
- Inhibitory activity against NAPRT (in words) (human recombinant NAPRT [3]): very poor inhibitors

Molecule: NC1CCC(C(=O)O)CC1 (stereo not drawn) [Compound 35, 4-aminocyclohexane carboxylic acid]
- inhibition at 500 µM (human recombinant NAPRT [3]; [11]): 0%
- Inhibitory activity against NAPRT (in words) (human recombinant NAPRT [3]): inactive

Molecule: CC(=O)Nc1ccccc1 [Compound 37, acetanilide]
- inhibition at 500 µM (human recombinant NAPRT [3]; [11]): 0%
- Inhibitory activity against NAPRT (in words) (human recombinant NAPRT [3]): inactive

B1: human recombinant NAPRT (Homo sapiens) (protein)
chain: T1 sequence (Q6XQN6 1-538)
- Km [6]: 15 ± 6 µM
